The text below walks through data of PubChem BioAssay (NCI).

Among the test systems are KM20L2 colon; LXFL 529 NSCLC; HOP-18 NSCLC; M19-MEL melanoma; DLD-1 colon; DMS 273 small cell lung; P388/ADR leukemia; XF 498 CNS; SN12K1 renal; P388 leukemia; RXF-631 renal.
Holding throughout (test): NCI tumour cell line growth inhibition, 48 h

Structures are written as SMILES.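 The compound was tested at five concentrations on cells cultured in 96-well plates, with a 48-hour exposure period. GI50: concentration for 50% inhibition of growth. TGI: total growth inhibition.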 A value given as a limit tells only on which side of the number the result lay.

For the compound `CN1N=C2c3ccccc3CC[C@H]2C1c1ccccc1` (some centres not stated), the TGI in the assay on KM20L2 colon was more than 100 µM; in the assay with LXFL 529 NSCLC it was more than 100 µM; in the assay on HOP-18 NSCLC, more than 100 µM; with M19-MEL melanoma, 66.1 µM; in the assay with DLD-1 colon it was more than 100 µM; with DMS 273 small cell lung it was more than 100 µM.
In the case of `COC(=O)[C@@H]1c2cc3c(c(O)c2[C@@H](OC)C[C@@]1(C)O)C(=O)c1c(O)cc2c(c1C3=O)OC1O[C@@]2(C)[C@H](O)[C@@H](N(C)C)[C@@H]1O`, the TGI in the assay on KM20L2 colon came out at 0.794 µM; in the assay with P388/ADR leukemia, 15 µM; in the assay on XF 498 CNS, 0.66 µM; in the assay on HOP-18 NSCLC it was 1.34 µM; in the assay on M19-MEL melanoma, 0.88 µM; in the assay with DLD-1 colon, 8.83 µM. Also, the TGI was 1.41 µM in the assay with SN12K1 renal, 2.36 µM in the assay on P388 leukemia and 0.779 µM in the assay on DMS 273 small cell lung.
`C=C(C)C1Cc2c(cc(O)c3c(=O)c4ccccc4n(C)c23)O1` (configuration not stated): the TGI in the assay with KM20L2 colon is more than 100 µM; in the assay with LXFL 529 NSCLC it was more than 100 µM; with XF 498 CNS it was 41.8 µM; in the assay on RXF-631 renal, more than 100 µM; in the assay with HOP-18 NSCLC, more than 100 µM; with DLD-1 colon it was more than 100 µM. Also, in the assay on DMS 273 small cell lung, the TGI was more than 100 µM.
As to `O=c1ccc2ccccc2o1`, the TGI with KM20L2 colon, in the assay with LXFL 529 NSCLC, in the assay on XF 498 CNS, with HOP-18 NSCLC, in the assay on M19-MEL melanoma and in the assay with DLD-1 colon was more than 100 µM each time.
As for `[Cl-].[Rh+3].c1ccc(-c2ccnc3c2ccc2c(-c4ccccc4)ccnc23)cc1.c1ccc(-c2ccnc3c2ccc2c(-c4ccccc4)ccnc23)cc1.c1ccc(-c2ccnc3c2ccc2c(-c4ccccc4)ccnc23)cc1`, the TGI in the assay with KM20L2 colon was more than 100 µM; in the assay with P388/ADR leukemia it was more than 100 µM; in the assay on XF 498 CNS it was 89.3 µM; in the assay on HOP-18 NSCLC, more than 87.4 µM; in the assay on M19-MEL melanoma it was more than 86.2 µM; with DLD-1 colon it was more than 64.4 µM. Besides, the values for the TGI in the assay on SN12K1 renal, with P388 leukemia and in the assay with DMS 273 small cell lung were more than 87.2 µM, more than 71 µM and 83.1 µM, respectively. For the same compound, the GI50 in the assay with P388/ADR leukemia is 23.7 µM; with XF 498 CNS, 23.1 µM; in the assay with SN12K1 renal it was 29.7 µM; in the assay with P388 leukemia it was 24.7 µM.
Turning to `Nc1nc2c(ncn2CCOC(c2ccccc2)P(=O)(O)O)c(=O)[nH]1` (configuration not stated), the TGI in the assay with KM20L2 colon, in the assay with LXFL 529 NSCLC, with DLD-1 colon and in the assay with DMS 273 small cell lung was more than 100 µM throughout.
For `CN(C)CCNCc1c2ccccc2c(CNCCN(C)C)c2ccccc12`, the TGI in the assay on KM20L2 colon is 26 µM; in the assay with P388/ADR leukemia, more than 100 µM; in the assay on XF 498 CNS, more than 100 µM; with HOP-18 NSCLC, more than 100 µM; in the assay on M19-MEL melanoma, more than 57.1 µM; with DLD-1 colon, more than 100 µM. Also, the TGI was 67.6 µM with SN12K1 renal, more than 56.2 µM with P388 leukemia and more than 100 µM with DMS 273 small cell lung.
On to `COc1ccc(/C(Cl)=C(\C=O)c2ccc(F)cc2)cc1`, for which the TGI in the assay on KM20L2 colon turned out to be 20.5 µM; with LXFL 529 NSCLC, 61.6 µM; in the assay on RXF-631 renal it was 80.6 µM; in the assay with HOP-18 NSCLC, 51.7 µM; in the assay on M19-MEL melanoma, 79.4 µM; with DLD-1 colon it was 50.3 µM. In the assay on DMS 273 small cell lung, the TGI is 56.4 µM.
In the case of `O=C(CSc1nnc(Cc2ccccc2)o1)Nc1ccc(Cl)cc1`, the TGI in the assay with KM20L2 colon, in the assay with LXFL 529 NSCLC, with HOP-18 NSCLC, in the assay on M19-MEL melanoma, in the assay with DLD-1 colon and in the assay with DMS 273 small cell lung was more than 100 µM in each case.
`O=[N+]([O-])c1ccc(/C=C/c2ccc(N=Nc3ccc(/C=C/c4ccc([N+](=O)[O-])cc4S(=O)(=O)O)c(S(=O)(=O)O)c3)cc2S(=O)(=O)O)c(S(=O)(=O)O)c1`: the TGI in the assay with P388/ADR leukemia, with XF 498 CNS, in the assay on HOP-18 NSCLC, in the assay with M19-MEL melanoma, in the assay with DLD-1 colon and in the assay on SN12K1 renal was more than 100 µM in each case. For the same compound, the TGI with P388 leukemia and with DMS 273 small cell lung was more than 100 µM throughout.
`C[n+]1c2ccccc2c(CNC(CCC(N)=O)C(=O)O)c2ccccc21` (configuration not stated): the TGI was 12.3 µM with KM20L2 colon; 2.26 µM with LXFL 529 NSCLC; 3.81 µM in the assay on XF 498 CNS; 11.8 µM in the assay on HOP-18 NSCLC; 7.91 µM with M19-MEL melanoma; 1.83 µM in the assay with DLD-1 colon. In the assay on DMS 273 small cell lung, this compound came in with a TGI of 4.44 µM.
